The subject of this assay is MDA-MB-468.

As to `NCC(=O)NS(=O)(=O)OC[C@H]1O[C@@H](n2cnc3c(N)ncnc32)[C@H](O)[C@@H]1O` [GlySA, glycylsulfamoyladenosine], the 50% growth inhibitory concentration (GI50) (Homo sapiens, MDA-MB-468) turned out to be 0.741 µM. In addition, the CC50 (Homo sapiens, MDA-MB-468, read-out: LC50 (μM)) is 7.59 µM. Further, the LC50/GI50 (MDA-MB-468, Breast Cancer) was found to be 10.2.

The record behind these values is patent US20190381086A1, “INHIBITION OF NEDDYLATION USING GLYCYL-tRNA SYNTHETASE INHIBITORS” (The Scripps Research Institute, priority 2015, published 2019).
